Results as given in publication PMC8960621, “Solution speciation and human serum protein binding of indium(III) complexes of 8-hydroxyquinoline, deferiprone and maltol” (Journal of Biological Inorganic Chemistry, 2022).
Where “and” joins values, the source holds several entries; their conditions need not be identical. Equal entries are not always repeated.

Assays:
apo-transferrin (apoTf) = target: T1, apo-transferrin (apoTf) (Homo sapiens, UniProt P02787); experiment: Kinetics of the reaction with apoTf followed by UV-vis spectrophotometry; type: binding; settings: pH 7.40 (InCl3: 2 equiv.)
T1 construct: purchased Sigma-Aldrich T2036
Protocol: Firstly, the kinetics of the reaction between apoTf and InCl3 and the complexes was studied by UV–vis spectrophotometry. The reaction of 2 equiv. […] At the same time Harris et al. have observed slow equilibration with InCl3, that was accelerated (to 6 h) in the presence of NTA [18]. In the case of InQ3 and InD3, the progress of apoTf binding could be followed through the ligand bands of the complexes. […] The Ga(III)-analogue GaQ3 interacted within 1 h with apoTf under similar conditions.
For (apo)Tf containing samples, complex concentrations were 20 μM and 0–2.5 equiv. protein was added. Reference spectra for the complexes, ligands and protein were recorded as well. Samples prepared with blood serum contained three-fold diluted serum and 10 μM metal complexes. UV–vis spectra presented in this paper for complexes InD3 or InQ3 are subtracted by the spectrum of reference protein (HSA (apo)Tf or serum) sample in all cases in favour of the better interpretation of the results.

[1] = target: T2, human serum albumin (HSA) (Homo sapiens, UniProt P02768); experiment: HSA binding by steady-state spectrofluorometry (complex fluorescence and Trp-214 quenching)
T2 construct: purchased Sigma-Aldrich A8763
From the text: The effect of HSA on the intrinsic fluorescence of InQ3 and InD3 was studied. Similarly to GaQ3 and tris(8-hydroxy-quinolinato)Al(III), InQ3 and InD3 are also fluorescent metal complexes (see Table 2 for λmax values). […] The fluorescence intensity of InQ3 increased in the presence of HSA, and emission intensity values measured at 530 nm show a saturation character plotted against the added HSA equivalents. […] At the same time, UV–vis absorbance spectra of InQ3 are only slightly altered by the binding interaction. Enhanced fluorescence of InQ3, and fast binding kinetics confirm the binding of the non-dissociated metal complex to the protein via intermolecular interactions. Fluorometric data can be excellently fitted with the computer program PSEQUAD [43] assuming a single site model (see Fig. 3), and a conditional binding constant of log K′ = 5.0 ± 0.1 was calculated for the HSA – InQ3 adduct. This constant indicates a moderate affinity of the complex on HSA.
Binding at the site I hydrophobic pocket of HSA can be followed via the selective excitation (λEX = 295 nm) of the single Trp (Trp-214) located close to this site. Trp-214 is sensitive to the binding events taking place at or near this site. The InQ3 complex quenched effectively the fluorescence of HSA, and a quenching constant (K’Q) could be computed based on the measured spectra: log K’Q = 5.1 ± 0.1.
Fluorescence studies were implemented by a Fluoromax (Horiba Jobin Yvon) fluorometer in 1 cm quartz cells. Samples contained 1 μM HSA or (apo)Tf and various protein-to-metal complex (or InCl3) ratios (up to complex/HSA = 1:30) were used. The excitation wavelength was 295 nm and 280 nm for HSA and Tf binding studies, respectively; emission intensity was registered between 300 and 450 nm. Intrinsic fluorescence of complex InQ3 was also followed at λEX = 367 nm, and λEM = 450 – 650 nm. In this setup, the complex concentration was ca. 10 or 20 μM, and protein (HSA, (apo)Tf) concentration was varied between 0 and 130 μM, and residual fluorescence of the proteins were subtracted if it was necessary. […] Computer program PSEQUAD [43] was utilized for the calculation of binding constants (K’) for HSA – InQ3 adducts similar to the approach described in our former works. Calculations were always based on data obtained from at least two independent measurements.

HSA and Tf = experiment: Complex - HSA - Tf ternary systems (three-dimensional fluorescence and UV-vis); type: binding, human; settings: pH 7.40; for metal ion Tf bound: 10 μM complex, HSA 5.2 equiv., Tf 0.32 equiv.; for dissociation of the complex: 212 μM HSA and 12.8 μM Tf (ratio 1:21.2:1.28)
Protocol: The reliability of UV–vis and fluorescence spectroscopic techniques in the characterization of the mode of interaction of In(III) complexes with HSA and (apo)Tf was proven in the former sections. Therefore, as a continuation three-dimensional fluorescence and UV–vis spectra were recorded for InQ3 and GaQ3 in the presence of both HSA and Tf (Figs. 7 and S7).
In these experiments, the applied HSA-to-Tf ratio corresponds to their physiological ratio in blood serum (630:38). Figure 8 depicts the intensity changes of the ternary system (complex and both proteins) for InQ3 at λEX = 367 nm and λEM = 530 nm in comparison to the respective binary systems (complex and only one type of protein). Apparently, albumin binding of the complex is indeed achieved in the ternary system, although to a lower extent compared to the InQ3 – HSA binary system, and the Tf binding of In(III) becomes more significant at higher protein concentrations. Consequently, the measured intensity reduces parallel with the decreasing (free and albumin bound) InQ3 concentration. […] Based on these spectra, InQ3 and GaQ3 are at least partly HSA-bound. However, minor dissociation of the complexes is evidenced by the UV–vis spectra (Fig. S7) even at this ratio that is more advanced for InQ3 than for GaQ3 (ca. 30% and 10% metal ion is Tf bound, respectively). The differences between the two complexes become more pronounced by getting closer to the physiologically relevant protein concentrations. In the presence of 212 μM HSA and 12.8 μM Tf (ratio: 1:21.2:1.28), the fluorescence of InQ3 is diminished, as most of the complex decomposes and In(III) is bound to Tf. […] To mimic the blood protein concentrations, three-times higher values would be needed; however, under that conditions fluorometric detection becomes inadequate due to the too high absorbance and light scattering of the samples.
Three-dimensional spectra were recorded for ternary systems containing InQ3 or GaQ3, HSA and Tf in the wavelength range λEX = 250 – 450 nm and λEM = 300 – 700 nm. All three-dimensional spectra were corrected by residual fluorescence of the proteins, inner filter effect and self-absorbance.

T2 sequence (P02768 25-609): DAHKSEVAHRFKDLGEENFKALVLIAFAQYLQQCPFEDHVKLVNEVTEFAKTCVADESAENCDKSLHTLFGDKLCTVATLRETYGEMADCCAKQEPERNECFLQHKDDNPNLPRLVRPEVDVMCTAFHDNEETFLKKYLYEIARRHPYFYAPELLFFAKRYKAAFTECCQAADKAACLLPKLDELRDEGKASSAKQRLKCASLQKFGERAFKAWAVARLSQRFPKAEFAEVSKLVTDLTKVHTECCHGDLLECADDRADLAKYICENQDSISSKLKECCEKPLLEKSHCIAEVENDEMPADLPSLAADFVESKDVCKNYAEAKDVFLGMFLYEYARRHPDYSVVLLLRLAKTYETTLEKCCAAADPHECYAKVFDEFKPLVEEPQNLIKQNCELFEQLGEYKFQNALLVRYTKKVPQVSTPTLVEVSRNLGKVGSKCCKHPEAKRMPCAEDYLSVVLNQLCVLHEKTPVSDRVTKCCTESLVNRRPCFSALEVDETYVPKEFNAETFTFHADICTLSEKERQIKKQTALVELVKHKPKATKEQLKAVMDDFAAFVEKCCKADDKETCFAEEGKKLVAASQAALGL
T1 sequence (P02787 20-698): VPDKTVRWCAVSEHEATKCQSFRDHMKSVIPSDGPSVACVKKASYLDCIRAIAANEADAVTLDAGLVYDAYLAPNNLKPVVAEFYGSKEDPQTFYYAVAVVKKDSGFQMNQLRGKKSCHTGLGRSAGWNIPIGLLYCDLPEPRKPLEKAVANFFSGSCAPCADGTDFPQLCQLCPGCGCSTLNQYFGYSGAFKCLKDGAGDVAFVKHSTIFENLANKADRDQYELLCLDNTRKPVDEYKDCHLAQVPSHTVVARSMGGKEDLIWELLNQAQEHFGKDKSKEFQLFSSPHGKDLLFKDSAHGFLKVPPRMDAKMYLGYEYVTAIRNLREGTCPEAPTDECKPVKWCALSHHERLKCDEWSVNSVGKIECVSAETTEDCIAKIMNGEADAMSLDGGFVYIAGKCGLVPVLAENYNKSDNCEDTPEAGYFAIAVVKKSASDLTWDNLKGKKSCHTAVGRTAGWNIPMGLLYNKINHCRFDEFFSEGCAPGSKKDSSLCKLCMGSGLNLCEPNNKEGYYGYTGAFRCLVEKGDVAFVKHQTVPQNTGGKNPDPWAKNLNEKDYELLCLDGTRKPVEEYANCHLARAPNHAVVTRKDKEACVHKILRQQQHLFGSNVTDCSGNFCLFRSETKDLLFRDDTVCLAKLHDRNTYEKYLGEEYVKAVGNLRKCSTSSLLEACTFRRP

| Structure (SMILES) | time to reach equilibrium in the reaction with apoTf (apo-transferrin (apoTf)) | binding on HSA (fluorescence intensities additive) ([1]; fluorometry, pH 7.40) | metal ion Tf bound (HSA and Tf) | dissociation of the complex (HSA and Tf) | log K’Q (quenching constant) ([1]; Trp-214 quenching, λEX = 295 nm, pH 7.40) | time of the interaction with HSA ([1]; fluorometry) | log K′ (conditional binding constant, HSA adduct) ([1]; fluorometry of the complex, single site model, pH 7.40, 25 °C) |
| --- | --- | --- | --- | --- | --- | --- | --- |
| Cc1c([O-])c(=O)ccn1C.Cc1c([O-])c(=O)ccn1C.Cc1c([O-])c(=O)ccn1C.[In+3] [InD3] | ~0.5 h | no considerable binding | – | – | – | – | – |
| [In+3].[O-]c1cccc2cccnc12.[O-]c1cccc2cccnc12.[O-]c1cccc2cccnc12 [InQ3, Tris(8-Quinolinolato)indium(III)] | 3 to 4 h | – | ca. 30% | practically completely dissociated | 5.1 ± 0.1 | within a few seconds | 5.0–5.1 and 5.0 ± 0.1 |
| [Ga+3].[O-]c1cccc2cccnc12.[O-]c1cccc2cccnc12.[O-]c1cccc2cccnc12 [GaQ3, Tris(8-Quinolinolato)gallium(III), reference compound] | – | – | ~10% | 25% | – | – | – |
